Patent US20140031278A1, “Novel Glucagon Analogues” (NOVO NORDISK A/S, priority 2011, published 2014)
*1 amine or outer side, *2 acyl side, *3 side chain or, on linkers, in order; H or OH if unused. Where a SMILES comes first, the peptide text is derived from it. Side-chain parts run from the residue outwards. [ ]: non-standard residue; d: D form. γGlu = O=C(O)[C@H](CCC(=O)[*:2])N[*:1]; Aib = CC(C)(N)C(=O)O

Legend:
glucagon receptor = molecular target: T1, glucagon receptor (Homo sapiens, UniProt P47871); experiment: Assay (I) Glucagon activity (cAMP biosensor, FLIPR); assay type: cell-based; conditions: HEK-293 cells with cloned glucagon receptor and cAMP biosensor; end point after 6 minutes
T1 construct: expressed in transfected cells
Outline: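 HEK-293 cells expressing glucagon receptor with membrane cAMP biosensor (ACTOne), calcium-dye loaded with probenecid and a PDE inhibitor.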

[1] = ThT fibrillation assay for physical stability (lag time, recovery); assay type: physicochemical; conditions: absence of increased ThT fluorescence noted as lag time of 45 hours
Excerpt: This has traditionally been measured by visual inspection of the sample. However, that kind of measurement is very subjective and depending on the observer. Therefore, the application of a small molecule indicator probe is much more advantageous. […] Enzymol.
Here, F is the ThT fluorescence at the time t.
The lag-time corresponds to the interval in which the critical mass of nucleus is built up and the apparent rate constant is the rate with which the fibril itself is formed.
Samples were prepared freshly before each assay. […] The pH of the sample was adjusted to the desired value using appropriate amounts of concentrated NaOH and HCl.
The plate was sealed with Scotch Pad (Qiagen).
Each run was initiated by incubating the plate at the assay temperature for 10 min. The plate was measured every 20 minutes for a desired period of time. Between each measurement, the plate was shaken and heated as described.
The supernatant was filtered through a 0.22 μm filter and an aliquot was transferred to a HPLC vial.
The data set may be fitted to Eq. (1).

T1 sequence (P47871 26-477): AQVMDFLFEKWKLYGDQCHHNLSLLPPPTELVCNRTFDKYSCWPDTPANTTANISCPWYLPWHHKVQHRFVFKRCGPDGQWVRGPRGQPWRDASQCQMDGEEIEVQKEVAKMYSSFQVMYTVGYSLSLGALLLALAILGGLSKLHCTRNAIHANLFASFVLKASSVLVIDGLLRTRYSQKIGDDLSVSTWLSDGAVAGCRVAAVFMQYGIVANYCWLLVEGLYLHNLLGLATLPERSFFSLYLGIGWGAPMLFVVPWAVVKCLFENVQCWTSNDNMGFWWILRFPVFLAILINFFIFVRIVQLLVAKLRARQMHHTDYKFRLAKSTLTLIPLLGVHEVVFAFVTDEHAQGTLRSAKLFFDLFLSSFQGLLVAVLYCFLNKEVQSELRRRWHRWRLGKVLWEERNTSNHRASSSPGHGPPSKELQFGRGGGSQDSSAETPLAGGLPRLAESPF

Row | SMILES | EC50 (glucagon receptor) [pM] | ThT assay [Lag time] [1] [h]
1 | CC(=O)N[C@@H](CCC(=O)N[C@@H](CCC(=O)N[C@@H](CCC(=O)N[C@@H](CCC(=O)NCCCC[C@H](NC(=O)[C@@H](NC(=O)[C@H](Cc1ccccc1)NC(=O)[C@H](CCC(=O)O)NC(=O)[C@H](C)NC(=O)[C@H](C)NC(=O)[C@H](CCCNC(=N)N)NC(=O)[C@H](CCCNC(=N)N)NC(=O)[C@@H](NC(=O)[C@H](CC(=O)O)NC(=O)[C@H](CC(C)C)NC(=O)[C@H](Cc1ccc(O)cc1)NC(=O)[C@H](CCCCN)NC(=O)[C@H](CO)NC(=O)[C@H](Cc1ccc(O)cc1)NC(=O)[C@H](CC(=O)O)NC(=O)[C@H](CO)NC(=O)[C@@H](NC(=O)[C@H](Cc1ccccc1)NC(=O)[C@@H](NC(=O)CNC(=O)[C@H](Cc1c[nH]cn1)NC(=O)C(C)(C)NC(=O)[C@@H](N)Cc1c[nH]cn1)[C@@H](C)O)[C@@H](C)O)C(C)C)C(C)C)C(=O)N[C@@H](Cc1c[nH]c2ccccc12)C(=O)N[C@@H](CC(C)C)C(=O)N[C@@H](CC(C)C)C(=O)N[C@@H](CO)C(=O)N[C@H](C(=O)O)[C@@H](C)O)C(=O)O)C(=O)O)C(=O)O)C(=O)O [Example 48, N^ε24-[(4S)-4-[[(4S)-4-[[(4S)-4-[[(4S)-4-acetamido-4-carboxybutanoyl]amino]-4-carboxybutanoyl]amino]-4-carboxybutanoyl]amino]-4-carboxybutanoyl]-[Aib^2,His^3,Val^16,Ala^20,Glu^21,Lys^24,Leu^27,Ser^28]-Glucagon] (H-H[Aib]HGTFTSDYSKYLDVRRAAEFVK([γGlu-γGlu-γGlu-γGlu-Ac])WLLST-OH) | 5 | 14
2 | CC(=O)N[C@@H](CCC(=O)N[C@@H](CCC(=O)N[C@@H](CCC(=O)N[C@@H](CCC(=O)NCCCC[C@H](NC(=O)[C@@H](NC(=O)[C@H](CO)NC(=O)[C@H](CC(C)C)NC(=O)[C@H](CC(C)C)NC(=O)[C@H](Cc1c[nH]c2ccccc12)NC(=O)[C@H](CCC(N)=O)NC(=O)[C@@H](NC(=O)[C@H](Cc1ccccc1)NC(=O)[C@H](CC(=O)O)NC(=O)[C@H](CCC(N)=O)NC(=O)[C@H](C)NC(=O)[C@H](CCCNC(=N)N)NC(=O)[C@H](CCCNC(=N)N)NC(=O)[C@H](CO)NC(=O)[C@H](CC(=O)O)NC(=O)[C@H](CC(C)C)NC(=O)[C@H](Cc1ccc(O)cc1)NC(=O)[C@H](CCCCN)NC(=O)[C@H](CO)NC(=O)[C@H](Cc1ccc(O)cc1)NC(=O)[C@H](CC(=O)O)NC(=O)[C@H](CO)NC(=O)[C@@H](NC(=O)[C@H](Cc1ccccc1)NC(=O)[C@@H](NC(=O)CNC(=O)[C@H](CCC(N)=O)NC(=O)[C@H](CO)NC(=O)[C@@H](N)Cc1c[nH]cn1)[C@@H](C)O)[C@@H](C)O)C(C)C)[C@@H](C)O)C(=O)O)C(=O)O)C(=O)O)C(=O)O)C(=O)O [Example 51, N^α([Leu^27,Ser^28]-Glucagonyl)-N^ε[(4S)-4-[[(4S)-4-[[(4S)-4-[[(4S)-4-acetamido-4-carboxybutanoyl]amino]-4-carboxybutanoyl]amino]-4-carboxybutanoyl]amino]-4-carboxybutanoyl]Lys] | 7 | –
3 | CC(=O)N[C@@H](CCC(=O)N[C@@H](CCC(=O)N[C@@H](CCC(=O)N[C@@H](CCC(=O)NCCCC[C@H](NC(=O)[C@@H](NC(=O)[C@H](Cc1ccccc1)NC(=O)[C@H](CC(=O)O)NC(=O)[C@H](CCC(N)=O)NC(=O)[C@H](C)NC(=O)[C@H](CCCNC(=N)N)NC(=O)[C@H](CCCNC(=N)N)NC(=O)[C@H](CC(C)C)NC(=O)[C@H](CC(=O)O)NC(=O)[C@H](CC(C)C)NC(=O)[C@H](Cc1ccc(O)cc1)NC(=O)[C@H](CCCNC(=N)N)NC(=O)[C@H](CO)NC(=O)[C@H](Cc1ccc(O)cc1)NC(=O)[C@H](CC(=O)O)NC(=O)[C@H](CO)NC(=O)[C@@H](NC(=O)[C@H](Cc1ccccc1)NC(=O)[C@@H](NC(=O)CNC(=O)[C@H](CCC(N)=O)NC(=O)[C@H](CO)NC(=O)[C@@H](N)Cc1c[nH]cn1)[C@@H](C)O)[C@@H](C)O)C(C)C)C(=O)N[C@@H](Cc1c[nH]c2ccccc12)C(=O)N[C@@H](CC(C)C)C(=O)N[C@@H](CC(C)C)C(=O)N[C@@H](CO)C(=O)N[C@H](C(=O)O)[C@@H](C)O)C(=O)O)C(=O)O)C(=O)O)C(=O)O [Example 39, N^ε24-[(4S)-4-[[(4S)-4-[[(4S)-4-[[(4S)-4-acetamido-4-carboxybutanoyl]amino]-4-carboxybutanoyl]amino]-4-carboxybutanoyl]amino]-4-carboxybutanoyl]-[Arg12,Leu16,Lys24,Leu27,Ser28]-Glucagon] (H-HSQGTFTSDYSRYLDLRRAQDFVK([γGlu-γGlu-γGlu-γGlu-Ac])WLLST-OH) | 3 | –
4 | CC(=O)N[C@@H](CCC(=O)N[C@@H](CCC(=O)N[C@@H](CCC(=O)N[C@@H](CCC(=O)NCCCC[C@H](NC(=O)[C@@H](NC(=O)[C@H](Cc1ccccc1)NC(=O)[C@H](CCC(=O)O)NC(=O)[C@H](C)NC(=O)[C@H](C)NC(=O)[C@H](CCCNC(=N)N)NC(=O)[C@H](CCCNC(=N)N)NC(=O)[C@@H](NC(=O)[C@H](CC(=O)O)NC(=O)[C@H](CC(C)C)NC(=O)[C@H](Cc1ccc(O)cc1)NC(=O)[C@H](CCCCN)NC(=O)[C@H](CO)NC(=O)[C@@H](NC(=O)[C@H](CC(=O)O)NC(=O)[C@H](CO)NC(=O)[C@@H](NC(=O)[C@H](Cc1ccccc1)NC(=O)[C@@H](NC(=O)CNC(=O)[C@H](Cc1c[nH]cn1)NC(=O)CNC(=O)[C@@H](N)Cc1c[nH]cn1)[C@@H](C)O)[C@@H](C)O)C(C)C)C(C)C)C(C)C)C(=O)N[C@@H](Cc1c[nH]c2ccccc12)C(=O)N[C@@H](CC(C)C)C(=O)N[C@@H](CC(C)C)C(=O)N[C@@H](CO)C(=O)N[C@H](C(=O)O)[C@@H](C)O)C(=O)O)C(=O)O)C(=O)O)C(=O)O [Example 50, N^ε24-[(4S)-4-[[(4S)-4-[[(4S)-4-[[(4S)-4-acetamido-4-carboxybutanoyl]amino]-4-carboxybutanoyl]amino]-4-carboxybutanoyl]amino]-4-carboxybutanoyl]-[Gly^2,His^3,Val^10,Val^16,Ala^20,Glu^21,Lys^24,Leu^27,Ser^28]-Glucagon] (H-HGHGTFTSDVSKYLDVRRAAEFVK([γGlu-γGlu-γGlu-γGlu-Ac])WLLST-OH) | 153 | –
